{"source": "ChEMBL document CHEMBL5532655", "about": "“Discovery of (R)-4-(8-methoxy-2-methyl-1-(1-phenylethy)-1H-imidazo[4,5-c]quinnolin-7-yl)-3,5-dimethylisoxazole as a potent and selective BET inhibitor for treatment of acute myeloid leukemia (AML) guided by FEP calculation” (Eur J Med Chem, 2024)", "key": {"MV4-11 [1]": {"test_system": "MV4-11", "experiment": "Induction of apoptosis in human MV4-11 cells assessed as viable cells at 2.5 uM incubated for 24 hrs by annexin V-FITC/PI staining based flow cytometric analysis (reference value: 97%)", "format": "functional", "settings": "Homo sapiens, MV4-11, read-out: Activity"}, "MV4-11 [2]": {"test_system": "MV4-11", "experiment": "Induction of apoptosis in human MV4-11 cells assessed as late apoptotic cells at 5 uM incubated for 24 hrs by annexin V-FITC/PI staining based flow cytometric analysis (reference value: 0.04 %)", "format": "functional"}, "MV4-11 [3]": {"test_system": "MV4-11", "experiment": "Antitumor activity against human MV4-11 cells xenografted in BALB/c mouse assessed as tumor growth inhibition at 50 mg/kg administration relative to control", "format": "functional", "settings": "read-out: TGI"}, "[4]": {"target": "T1, Transcription intermediary factor 1-alpha (Homo sapiens) (UniProt O15164)", "T1 sequence (whole entry)": "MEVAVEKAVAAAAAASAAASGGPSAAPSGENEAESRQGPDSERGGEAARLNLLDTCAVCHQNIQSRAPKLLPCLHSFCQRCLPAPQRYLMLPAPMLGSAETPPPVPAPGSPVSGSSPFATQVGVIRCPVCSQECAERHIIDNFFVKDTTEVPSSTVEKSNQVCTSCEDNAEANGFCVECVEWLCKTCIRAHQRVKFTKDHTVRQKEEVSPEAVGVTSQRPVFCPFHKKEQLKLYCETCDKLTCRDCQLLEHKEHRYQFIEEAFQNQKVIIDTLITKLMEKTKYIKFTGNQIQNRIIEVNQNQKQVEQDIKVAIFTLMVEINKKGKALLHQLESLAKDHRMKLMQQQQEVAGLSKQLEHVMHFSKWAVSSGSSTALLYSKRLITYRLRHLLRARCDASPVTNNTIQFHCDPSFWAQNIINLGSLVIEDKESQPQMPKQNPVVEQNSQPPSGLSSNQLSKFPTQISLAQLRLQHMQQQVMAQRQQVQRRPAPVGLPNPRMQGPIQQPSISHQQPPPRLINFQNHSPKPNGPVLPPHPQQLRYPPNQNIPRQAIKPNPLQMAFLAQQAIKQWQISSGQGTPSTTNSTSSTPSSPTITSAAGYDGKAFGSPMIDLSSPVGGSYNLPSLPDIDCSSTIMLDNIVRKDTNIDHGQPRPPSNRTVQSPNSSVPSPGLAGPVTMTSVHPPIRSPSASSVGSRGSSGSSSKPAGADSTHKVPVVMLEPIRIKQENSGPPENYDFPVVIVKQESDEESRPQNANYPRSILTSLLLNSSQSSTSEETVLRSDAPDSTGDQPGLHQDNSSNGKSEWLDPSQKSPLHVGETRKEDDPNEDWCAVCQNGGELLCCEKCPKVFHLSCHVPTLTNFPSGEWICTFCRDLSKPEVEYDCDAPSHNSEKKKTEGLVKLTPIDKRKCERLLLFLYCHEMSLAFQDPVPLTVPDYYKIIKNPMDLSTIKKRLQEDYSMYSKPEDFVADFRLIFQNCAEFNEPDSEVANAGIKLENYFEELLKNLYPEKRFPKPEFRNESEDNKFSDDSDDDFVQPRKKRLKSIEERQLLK", "experiment": "Binding affinity to TRIM24 (unknown origin) using biotinylated histone peptide H4 as substrate at 1 uM incubated for 2 hrs by AlphaScreen assay relative to control"}, "MV4-11 [5]": {"test_system": "MV4-11", "experiment": "Induction of cell cycle arrest in human MV4-11 cells assessed as accumulation of cells at G2/M phase at 0.625 uM incubated for 24 hrs by propidium iodide staining flow cytometric analysis (reference value: 18 %)", "format": "functional"}, "MV4-11 [6]": {"test_system": "MV4-11", "experiment": "Induction of apoptosis in human MV4-11 cells assessed as late apoptotic cells at 1.25 uM incubated for 24 hrs by annexin V-FITC/PI staining based flow cytometric analysis (reference value: 0.04 %)", "format": "functional"}, "MV4-11 [7]": {"test_system": "MV4-11", "experiment": "Induction of apoptosis in human MV4-11 cells assessed as necrotic cells at 10 uM incubated for 24 hrs by annexin V-FITC/PI staining based flow cytometric analysis (reference value: 2.35 %)", "format": "functional"}, "[8]": {"experiment": "Cmax in Sprague-Dawley rat at 10 mg/kg,po administration measured upto 24 hrs by LC-MS/MS analysis", "format": "ADME, organism-based", "settings": "in vivo"}, "MV4-11 [9]": {"test_system": "MV4-11", "experiment": "Induction of apoptosis in human MV4-11 cells assessed as upregulation of cleaved PARP expression at 0.3125 to 2.5 uM incubated for 48 hrs by Western blotting analysis", "format": "functional, cell-based", "settings": "dose 0.3125-2.5 µM"}, "MV4-11 [10]": {"test_system": "MV4-11", "experiment": "Induction of cell cycle arrest in human MV4-11 cells assessed as accumulation of cells at G2/M phase at 2.5 uM incubated for 24 hrs by propidium iodide staining flow cytometric analysis (reference value: 18 %)", "format": "functional"}, "MV4-11 [11]": {"test_system": "MV4-11", "experiment": "Induction of cell cycle arrest in human MV4-11 cells assessed as accumulation of cells at S phase at 5 uM incubated for 24 hrs by propidium iodide staining flow cytometric analysis (reference value: 43.94 %)", "format": "functional"}, "[12]": {"experiment": "AUC (0-infinity) in Sprague-Dawley rat at 10 mg/kg,po administration measured upto 24 hrs by LC-MS/MS analysis", "format": "ADME, organism-based", "settings": "in vivo"}, "MV4-11 [13]": {"test_system": "MV4-11", "experiment": "Induction of apoptosis in human MV4-11 cells assessed as downregulation of c-Myc expression incubated for 48 hrs by Western blotting analysis", "format": "functional, cell-based"}, "[14]": {"experiment": "AUC (0-t) in Sprague-Dawley rat at 1 mg/kg,iv administration measured upto 24 hrs by LC-MS/MS analysis", "format": "ADME, organism-based", "settings": "in vivo"}, "MV4-11 [15]": {"test_system": "MV4-11", "experiment": "Induction of apoptosis in human MV4-11 cells assessed as downregulation of CDK6 expression at 500 nM hrs by Western blotting analysis", "format": "functional, cell-based", "settings": "TDE = time-dependent effect"}, "[16]": {"experiment": "Apparent volume of distribution during terminal phase in Sprague-Dawley rat at 10 mg/kg,po administration measured upto 24 hrs by LC-MS/MS analysis", "format": "ADME, organism-based", "settings": "in vivo, read-out: Vz/F"}, "MV4-11 [17]": {"test_system": "MV4-11", "experiment": "Induction of apoptosis in human MV4-11 cells assessed as viable cells at 5 uM incubated for 24 hrs by annexin V-FITC/PI staining based flow cytometric analysis (reference value: 97%)", "format": "functional", "settings": "Homo sapiens, MV4-11, read-out: Activity"}, "[18]": {"target": "Transcription initiation factor TFIID subunit 1 (Homo sapiens) (UniProt P21675)", "sequence (P21675 whole entry)": "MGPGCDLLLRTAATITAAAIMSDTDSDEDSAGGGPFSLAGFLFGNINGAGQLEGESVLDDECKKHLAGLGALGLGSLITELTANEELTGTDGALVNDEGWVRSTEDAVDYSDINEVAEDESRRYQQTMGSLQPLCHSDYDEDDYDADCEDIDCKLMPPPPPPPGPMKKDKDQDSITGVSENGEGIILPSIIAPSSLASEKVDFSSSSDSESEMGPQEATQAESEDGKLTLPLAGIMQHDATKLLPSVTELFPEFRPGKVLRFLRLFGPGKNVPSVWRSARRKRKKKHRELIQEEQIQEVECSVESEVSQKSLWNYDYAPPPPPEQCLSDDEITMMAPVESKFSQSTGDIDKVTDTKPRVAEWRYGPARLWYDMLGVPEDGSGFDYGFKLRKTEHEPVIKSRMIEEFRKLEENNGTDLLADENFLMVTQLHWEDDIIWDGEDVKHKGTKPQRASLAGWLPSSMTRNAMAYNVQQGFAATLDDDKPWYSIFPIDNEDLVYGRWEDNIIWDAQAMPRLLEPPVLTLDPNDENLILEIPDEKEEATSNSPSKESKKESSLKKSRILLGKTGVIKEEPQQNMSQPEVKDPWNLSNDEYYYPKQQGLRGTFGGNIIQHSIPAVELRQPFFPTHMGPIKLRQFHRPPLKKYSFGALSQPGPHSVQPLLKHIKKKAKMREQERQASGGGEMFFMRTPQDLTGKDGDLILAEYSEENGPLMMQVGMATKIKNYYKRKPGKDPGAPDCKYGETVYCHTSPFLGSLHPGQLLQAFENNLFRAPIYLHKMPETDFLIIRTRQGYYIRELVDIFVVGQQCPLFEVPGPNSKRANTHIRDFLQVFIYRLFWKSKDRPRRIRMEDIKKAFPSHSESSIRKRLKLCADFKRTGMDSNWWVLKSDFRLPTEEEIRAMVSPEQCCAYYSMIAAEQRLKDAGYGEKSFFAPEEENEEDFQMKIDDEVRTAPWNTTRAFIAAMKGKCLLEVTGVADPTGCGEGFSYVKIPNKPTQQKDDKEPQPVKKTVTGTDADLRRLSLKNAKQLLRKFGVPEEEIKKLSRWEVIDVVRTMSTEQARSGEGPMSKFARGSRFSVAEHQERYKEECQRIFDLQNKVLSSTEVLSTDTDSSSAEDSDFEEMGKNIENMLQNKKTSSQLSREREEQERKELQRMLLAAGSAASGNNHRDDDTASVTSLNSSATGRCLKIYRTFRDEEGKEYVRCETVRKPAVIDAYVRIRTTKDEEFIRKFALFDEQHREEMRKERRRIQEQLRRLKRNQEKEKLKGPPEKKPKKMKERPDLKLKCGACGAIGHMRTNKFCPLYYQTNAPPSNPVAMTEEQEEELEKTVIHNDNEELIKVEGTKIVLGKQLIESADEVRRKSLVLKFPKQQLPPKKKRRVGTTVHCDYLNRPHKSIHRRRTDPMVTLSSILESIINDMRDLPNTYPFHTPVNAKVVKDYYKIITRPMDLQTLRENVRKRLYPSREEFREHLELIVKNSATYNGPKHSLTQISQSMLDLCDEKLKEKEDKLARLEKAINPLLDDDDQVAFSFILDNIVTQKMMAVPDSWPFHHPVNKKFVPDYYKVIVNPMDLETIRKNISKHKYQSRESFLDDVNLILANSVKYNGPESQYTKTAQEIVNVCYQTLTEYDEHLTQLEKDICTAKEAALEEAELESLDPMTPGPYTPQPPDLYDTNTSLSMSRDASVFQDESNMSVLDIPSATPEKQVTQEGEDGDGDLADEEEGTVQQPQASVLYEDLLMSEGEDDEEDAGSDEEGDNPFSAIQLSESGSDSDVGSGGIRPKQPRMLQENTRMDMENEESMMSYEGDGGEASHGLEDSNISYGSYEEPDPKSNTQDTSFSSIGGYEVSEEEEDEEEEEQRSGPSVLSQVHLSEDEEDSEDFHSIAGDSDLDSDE", "settings": "time 30.0 min"}, "MV4-11 [19]": {"test_system": "MV4-11", "experiment": "Induction of apoptosis in human MV4-11 cells assessed as necrotic cells at 1.25 uM incubated for 24 hrs by annexin V-FITC/PI staining based flow cytometric analysis (reference value: 2.35 %)", "format": "functional"}, "MV4-11 [20]": {"test_system": "MV4-11", "experiment": "Induction of apoptosis in human MV4-11 cells assessed as viable cells at 0.625 uM incubated for 24 hrs by annexin V-FITC/PI staining based flow cytometric analysis (reference value: 97%)", "format": "functional", "settings": "Homo sapiens, MV4-11, read-out: Activity"}, "MV4-11 [21]": {"test_system": "MV4-11", "experiment": "Induction of apoptosis in human MV4-11 cells assessed as upregulation of p21 expression at 500 nM hrs by Western blotting analysis", "format": "functional, cell-based", "settings": "TDE = time-dependent effect"}, "MV4-11 [22]": {"test_system": "MV4-11", "experiment": "Induction of apoptosis in human MV4-11 cells assessed as late apoptotic cells at 0.625 uM incubated for 24 hrs by annexin V-FITC/PI staining based flow cytometric analysis (reference value: 0.04 %)", "format": "functional"}, "MV4-11 [23]": {"test_system": "MV4-11", "experiment": "Induction of cell cycle arrest in human MV4-11 cells assessed as accumulation of cells at G2/M phase at 0.3125 uM incubated for 24 hrs by propidium iodide staining flow cytometric analysis (reference value: 18 %)", "format": "functional"}}, "note": "Active and inactive are the calls of the source. The calls are words filed in the database; no cut-off is given here."}
{"smiles": "COc1cc2c(cc1-c1c(C)noc1C)ncc1nc(C)n([C@H](C)c3ccccc3)c12", "values": [{"measurement": "viability at 2.5 µM", "setting": "MV4-11 [1]", "result": 81.7, "unit": "%"}, {"measurement": "Activity", "setting": "MV4-11 [2]", "result": 12.62, "unit": "%"}, {"measurement": "inhibition in vivo at 50 mg/kg", "setting": "MV4-11 [3]", "result": 70.4, "unit": "%"}, {"measurement": "Activity", "setting": "[4]", "result": "< 30", "unit": "%"}, {"measurement": "Activity", "setting": "MV4-11 [5]", "result": 16.18, "unit": "%"}, {"measurement": "Activity", "setting": "MV4-11 [6]", "result": 6.32, "unit": "%"}, {"measurement": "Activity", "setting": "MV4-11 [7]", "result": 8, "unit": "%"}, {"measurement": "Cmax", "setting": "[8]", "result": 1780, "unit": "ng/mL"}, {"measurement": "Activity", "setting": "MV4-11 [9]", "result": "Active"}, {"measurement": "Activity", "setting": "MV4-11 [10]", "result": 7.33, "unit": "%"}, {"measurement": "Activity", "setting": "MV4-11 [11]", "result": 17.41, "unit": "%"}, {"measurement": "AUC(0-inf)", "setting": "[12]", "result": 16000, "unit": "ng·h/mL"}, {"measurement": "Activity", "setting": "MV4-11 [13]", "result": "Dose-Dependent Effect"}, {"measurement": "AUC(0-t) at 24 h", "setting": "[14]", "result": 1380, "unit": "ng·h/mL"}, {"measurement": "Activity", "setting": "MV4-11 [15]", "result": "Tde"}, {"measurement": "Vd/F", "setting": "[16]", "result": 2.39, "unit": "L/kg"}, {"measurement": "viability at 5 µM", "setting": "MV4-11 [17]", "result": 78.4, "unit": "%"}, {"measurement": "ΔTm", "setting": "[18]", "result": 0, "unit": "°C"}, {"measurement": "Activity", "setting": "MV4-11 [19]", "result": 8, "unit": "%"}, {"measurement": "viability at 0.625 µM", "setting": "MV4-11 [20]", "result": 68.2, "unit": "%"}, {"measurement": "Activity", "setting": "MV4-11 [21]", "result": "Tde"}, {"measurement": "Activity", "setting": "MV4-11 [22]", "result": 4.8, "unit": "%"}, {"measurement": "Activity", "setting": "MV4-11 [23]", "result": 6.33, "unit": "%"}]}
{"smiles": "COc1cc2c(cc1-c1c(C)n[nH]c1C)ncc1nc(C)n([C@H](C)c3ccccc3)c12", "values": [{"measurement": "Activity", "setting": "[4]", "result": "< 30", "unit": "%"}, {"measurement": "ΔTm", "setting": "[18]", "result": 0, "unit": "°C"}]}
